Data as given in article PMC10542255, “A phase 1 trial of fuzuloparib in combination with apatinib for advanced ovarian and triple-negative breast cancer: efficacy, safety, pharmacokinetics and germline BRCA mutation analysis” (BMC Medicine, 2023).

Columns and labels:
[1] = human, in vivo
Experimental: The study used a standard 3 + 3 dose escalation design. The starting dose of fuzuloparib was 40 mg twice daily (bid) in combination with a fixed dose of apatinib at 250 mg once daily (qd); fuzuloparib could be dose escalated in 20 mg increments to up to 100 mg. An additional dose level of fuzuloparib 80 mg bid plus apatinib 375 mg qd was planned after assessment of the regimen of fuzuloparib 80 mg bid plus apatinib 250 mg qd. If dose escalation of fuzuloparib to 100 mg was completed, dose escalation for apatinib was initiated with two dose level planned: 375 mg qd and 500 mg qd (with fuzuloparib fixed at 100 mg bid). During dose escalation, the next-higher dose level was opened if less than one-third of patients in the previous dose level experienced a dose-limiting toxicity (DLT). Based on preliminary safety and efficacy data in the dose-escalation cohort, dose levels for PK-expansion were selected, with a total of 8–12 patients enrolled in each level. All patients received a single dose of oral fuzuloparib on day 1 and a single dose of oral apatinib on day 4 in cycle 0 (6 days in total), followed by continuous dosing of fuzuloparib and apatinib in 28-day cycles starting on cycle 1 day 1. Treatment continued until disease progression, intolerable toxicity, or patient withdrawal.
Pharmacokinetic sampling for single dose of fuzuloparib and apatinib was done on day 1 and day 4 (pre-dose and 0.5, 1, 2, 3, 4, 8, 12, 24, 48 h post-dose) of cycle 0, respectively; sampling for continuous dosing of the combination therapy was done on days 1 (pre-dose and 0.5, 1, 2, 3, 4, 8, 12, 24 h post-dose), 8 (pre-dose), 15 (pre-dose), 22 (pre-dose) of cycle 1, and day 1 (pre-dose and 0.5, 1, 2, 3, 4, 8, 12, 24 h post-dose) of cycle 2.
All enrolled patients who received at least one dose of study drug were included in the efficacy and safety analysis. […] Time-to-event endpoints were estimated using the Kaplan–Meier method, with the 95% CIs calculated using the Brookmeyer and Crowley method. PK parameters were calculated using the WinNonlin noncompartmental model. […]

[2] = test system: gBRCAmut, platinum-sensitive OC; set-up: method as in PMID 33558426; conditions: fuzuloparib monotherapy, phase 2, gBRCAmut platinum-sensitive OC; cited from earlier work

| Dose dependence of apatinib plasma exposure (AUC0-∞) [1] | Reduction of apatinib AUC0-24 h (cycle 2 day 1) vs AUC0-∞ after single apatinib monotherapy dose (cycle 0 day 4) [1] | Dose dependence of fuzuloparib plasma exposure (AUC0-12 h) [1] | SMILES | Median PFS [2] [months] | ORR [2] [%] |
| --- | --- | --- | --- | --- | --- |
| increased in a dose-dependent manner | 47.7%-65.0% | – | N#CC1(c2ccc(NC(=O)c3cccnc3NCc3ccncc3)cc2)CCCC1 [apatinib] | – | – |
| – | – | increased in a dose-dependent manner | O=C(c1cc(Cc2n[nH]c(=O)c3ccccc23)ccc1F)N1CCn2nc(C(F)(F)F)nc2C1 [fuzuloparib] | 12.0 | 69.9 |
